CC(=O)[C@@]1(O)CC[C@H]2[C@@H]3CCC4=CC(=O)CC[C@]4(C)[C@H]3C(O)C[C@@]21C (stereo in doubt)
solubility (mole fraction)
Conditions	278.15 K	283.15 K	288.15 K	293.15 K	298.15 K	303.15 K	308.15 K	313.15 K
in DMF	0.0659	0.0722	0.0753	0.0825	0.0943	0.1	0.11	0.119
in acetone	0.00679	0.00761	0.00804	0.00859	0.0095	0.0106	0.0115	0.0123
in chloroform	0.0129	0.0134	0.0141	0.0146	0.0157	0.016	0.0172	0.0189
in methanol	0.0139	0.0147	0.0159	0.0172	0.0181	0.0206	0.0232	0.0249
in n-propanol	0.00838	0.00978	0.0112	0.0129	0.0134	0.0143	0.0157	0.0169
in water	1.39e-05	1.73e-05	2.08e-05	2.43e-05	2.77e-05	3.47e-05	3.64e-05	3.98e-05
